# In US8816095B2, “Na channels, disease, and related assays and compositions” (Georgetown University, priority 2008, dated 2014):
# Experiments:
# PC-3 cells [1] = experiment: PC-3 cell growth inhibition assay (WST-8); assay type: cell-based; conditions: Homo sapiens, WST-8, 48 hours
# Method: The effect of compound 2 was studied on the proliferation of human androgen independent prostate cancer (PC-3) cells, using a cell viability assay with WST-8. […].
# PC-3 cells were added to the wells of a 96 well plate at 7500 cells per well in 100 uL of RPMI medium with 10% serum and allowed to plate down overnight. The medium was then removed and replaced with serum free medium containing the appropriate concentration of drug. DMSO concentration was kept below 1%. At this time WST-8 cell counting reagent was added to the control (T=0) wells and allowed to incubate for 2 hours and the absorbance was read at 450 nm to determine the starting number of cells per well. The plates were incubated for 48 hours, the medium was removed and the wells were washed with 100 uL of PBS. The PBS was removed that the wells were filled with 110 uL of serum free RPMI media containing the WST-8 reagent. After two hours of incubation, the plates absorbance was read at 450 nm and normalized to the control value.
# human Nav1.2 = biological target: T1, human Nav1.2 (Homo sapiens, UniProt Q99250); experiment: hNav1.2 functional block, whole-cell patch clamp; assay type: cell-based
# T1 construct: host or cells: HEK
# Method: Of the 20 analogs tested, six had [^3H]-BTX displacement characteristics much greater then that of phenyloin (Table 7), see Schemes 5, 6, 7 and 8 for the chemical synthesis and structure of the tested compounds. Compound 26, having the greatest [^3H]-BTX displacement at 86% ([…]), was further tested for VGSC functional blocking ability in HEK cells stably expressing Nav1.2 (Table 8).
# In addition the functional blocking ability of 9 was tested after site two affinities was confirmed. The potential reason for this increased blocking ability stems from the dansyl addition in a hydrophobically receptive region of the binding site in the VGSC (Anderson, J. D., et al. Mol. Cancer. Ther. 2003, 2, 1149-1154; Lenkowski, P et al. Neuropharmacology, 2007, 52, 1044-1054). This enhanced potency could be due to the dansyl substituent interacting with L1465 and 11469, located in S6 of domain III in the binding site, which are believed to be the source of hydrophobic receptivity 17. The ability to inhibit VGSC currents is an important property and represents functional blocking. The ability of CDPNS to inhibit sodium channel currents was assessed at 10 and 100 μM against human Nav1.2 by patch clamp assay (FIG. 10).
# Human embryonic kidney cells (HEK) cells stably expressing human Nav1.2 were a kind gift from Dr. H. A. Hartmann (University of Baltimore, Md., USA) and were grown in DMEM/F12 media (Invitrogen, Corp, CA, USA) supplemented with 10% fetal bovine serum, penicillin (100 U/ml), streptomycin (100 μg/ml) and G418 (500 μg/ml; Sigma, Mo., USA). Cells were grown in a humidified atmosphere of 5% CO2 and 95% air at 37° C.
# Sodium currents were recorded using the whole-cell configuration of the patch clamp recording technique with an Axopatch 200 amplifier (Axon Instruments, Foster City, Calif.). All voltage protocols were applied using pCLAMP 9 software (Axon, USA) and a Digidata 1322A (Axon, USA). Currents were amplified and low pass filtered (2 kHz) and sampled at 33 kHz. Borosilicate glass pipettes were pulled using a Brown-Flaming puller (model P87, Sutter Instruments Co, Novato, Calif.) and heat polished to produce electrode resistances of 0.5-1.5 MΩ when filled with the following electrode solution (in mM); CsCl 130, MgCl2 1, MgATP 5, BAPTA 10, HEPES 5 (pH adjusted to 7.4 with CsOH). Cells were plated on glass coverslips and superfused with solution containing the following composition; (in mM) NaCl 130, KCl 4, CaCl2 1, MgCl2 5, HEPES 5, and glucose 5 (pH adjusted to 7.4 with NaOH).
# Compound 26 was prepared as 100 mM stock solutions in dimethyl sulfoxide (DMSO) and diluted to desired concentration in perfusion solution. The maximum DMSO concentration used was 0.1% and had no effect on current amplitude. All experiments were performed at room temperature (20-22° C.). After establishing whole-cell, a minimum series resistance compensation of 75% was applied. Sodium currents were elicited by a depolarizing step from a holding potential of −100 mV to +10 mV for a duration of 25 ms at 15 s intervals. Compound 26 was applied after a 3 min control period and continued until a steady state current amplitude was observed. All data represent percentage mean block±standard error of the mean (S.E.M.).
# human prostate tissue = experiment: Staining of human prostate paraffin embedded tissue slices; conditions: 100 μM
# Method: The binding and localization of compound 26 in prostate and prostate cancer tissue was studied. Human prostate paraffin embedded tissue slices were stained with 100 μM of compound 26 and dansyl amine.
# site 2 of the VGSC = experiment: [3H]-BTX-B displacement assay at site 2; assay type: binding, rat; conditions: for % [3H]-BTX Inhibition (40 μM) / % [3H]-BTX Displacement (40 μm): rat brain synaptoneurosomes; for % [3H]-BTX Inhibition (40 μM): Table 9; for % [3H]-BTX Displacement (40 μm): Table 13
# PC-3 cells [2] = experiment: PC-3 MTT cell viability assay; assay type: cell-based; conditions: Homo sapiens, read-out: GI50 ± SEM (10 μM), DPH and JDA-3-135 previously determined
# Source text: Following the determination that compound CDPNS inhibits the VGSCs that are present in androgen independent PC-3 cells, a 3-(4,5-Dimethylthiazol-2-yl)-2,5-diphenyltetrazolium bromide (MTT) cell viability assay was utilized to measure the ability of compound CDPNS to inhibit PC-3 cell growth via VGSC blockade. In this experiment data yielded from CDPNS was compared to previously determined DPH and JDA-3-135 antiproliferation data (Table 10).
# hNav1.2 = hNav1.2 (Homo sapiens, UniProt Q99250); conditions: whole-cell patch clamp, hNav1.2 expressing HEK cells; read-out: hNav1.2 electrophysiology IC50; cited from earlier work
# [3] = read-out: GI50 in PC3 prostate cancer cells
# T1 sequence (Q99250 whole entry): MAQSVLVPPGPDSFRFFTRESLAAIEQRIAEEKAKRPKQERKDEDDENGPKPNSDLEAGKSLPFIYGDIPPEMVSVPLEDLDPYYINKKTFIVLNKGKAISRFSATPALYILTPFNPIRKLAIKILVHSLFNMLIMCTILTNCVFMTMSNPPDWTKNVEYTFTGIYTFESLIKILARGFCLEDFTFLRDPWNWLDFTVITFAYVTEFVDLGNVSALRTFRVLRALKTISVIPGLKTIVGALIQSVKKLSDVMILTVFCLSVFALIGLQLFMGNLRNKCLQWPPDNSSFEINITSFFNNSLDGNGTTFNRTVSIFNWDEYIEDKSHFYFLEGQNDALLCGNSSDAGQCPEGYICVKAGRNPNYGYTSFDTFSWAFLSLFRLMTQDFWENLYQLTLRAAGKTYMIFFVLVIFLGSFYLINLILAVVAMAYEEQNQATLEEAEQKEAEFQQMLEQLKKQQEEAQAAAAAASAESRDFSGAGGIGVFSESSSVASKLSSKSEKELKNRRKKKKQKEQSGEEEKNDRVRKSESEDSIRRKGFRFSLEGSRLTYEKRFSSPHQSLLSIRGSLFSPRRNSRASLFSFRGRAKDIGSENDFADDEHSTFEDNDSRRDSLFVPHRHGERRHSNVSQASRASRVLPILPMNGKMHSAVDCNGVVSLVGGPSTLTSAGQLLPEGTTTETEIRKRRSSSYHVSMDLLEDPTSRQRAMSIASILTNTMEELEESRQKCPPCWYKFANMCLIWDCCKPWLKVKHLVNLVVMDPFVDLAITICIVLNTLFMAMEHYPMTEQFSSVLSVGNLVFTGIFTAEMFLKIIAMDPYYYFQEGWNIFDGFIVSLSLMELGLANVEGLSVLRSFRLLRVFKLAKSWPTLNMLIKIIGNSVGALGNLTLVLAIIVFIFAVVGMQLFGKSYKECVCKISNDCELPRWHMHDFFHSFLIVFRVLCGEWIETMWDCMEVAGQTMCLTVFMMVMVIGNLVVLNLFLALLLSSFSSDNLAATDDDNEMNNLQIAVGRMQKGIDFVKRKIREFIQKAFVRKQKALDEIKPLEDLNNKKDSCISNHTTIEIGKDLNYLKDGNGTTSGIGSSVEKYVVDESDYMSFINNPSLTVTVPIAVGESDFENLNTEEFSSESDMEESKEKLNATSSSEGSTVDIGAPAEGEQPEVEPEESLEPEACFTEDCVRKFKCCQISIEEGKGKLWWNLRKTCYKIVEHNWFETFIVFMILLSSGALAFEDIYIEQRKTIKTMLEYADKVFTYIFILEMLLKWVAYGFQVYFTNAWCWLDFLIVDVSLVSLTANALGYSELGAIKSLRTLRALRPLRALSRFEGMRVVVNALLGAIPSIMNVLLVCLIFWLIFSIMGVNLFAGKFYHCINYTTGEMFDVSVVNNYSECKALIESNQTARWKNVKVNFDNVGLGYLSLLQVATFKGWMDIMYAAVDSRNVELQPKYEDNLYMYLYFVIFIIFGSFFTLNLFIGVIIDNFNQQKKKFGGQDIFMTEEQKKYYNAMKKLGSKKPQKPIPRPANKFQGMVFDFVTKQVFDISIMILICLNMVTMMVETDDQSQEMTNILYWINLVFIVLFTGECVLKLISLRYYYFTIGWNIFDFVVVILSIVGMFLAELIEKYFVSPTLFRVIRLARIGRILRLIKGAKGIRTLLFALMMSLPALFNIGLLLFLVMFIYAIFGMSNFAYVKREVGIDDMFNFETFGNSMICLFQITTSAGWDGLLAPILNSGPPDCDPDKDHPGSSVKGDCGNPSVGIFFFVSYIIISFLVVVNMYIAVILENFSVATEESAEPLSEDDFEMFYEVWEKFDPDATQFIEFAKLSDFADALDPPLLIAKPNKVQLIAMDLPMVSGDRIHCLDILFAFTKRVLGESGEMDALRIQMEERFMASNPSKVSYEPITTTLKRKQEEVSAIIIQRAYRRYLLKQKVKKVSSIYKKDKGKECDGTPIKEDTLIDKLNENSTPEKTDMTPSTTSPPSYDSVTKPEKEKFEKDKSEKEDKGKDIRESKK
# Chain of hNav1.2 (Q99250 whole entry): as above
Compound,GI50 (PC-3 cells [1]; [3]) [µM],GI50 (PC-3 cells [1]; read-out: PC3 GI50 (μg)) [µM],% hNaV 1.2 Functional Block (10 μM) (human Nav1.2; Table 8) [%],"% hNaV 1.2 Functional Block (10 μM) (human Nav1.2; Table 8, listed as CDPNS) [%]",% hNaV 1.2 Functional Block (10 μM) (human Nav1.2; Table 9) [%],"% hNaV 1.2 Functional Block (10 μM) (human Nav1.2; Table 9, listed as CDPNS) [%]",binding to human prostate tissue (microscopy) (human prostate tissue),% [3H]-BTX Inhibition (40 μM) (site 2 of the VGSC) [%],% [3H]-BTX Displacement (40 μm) (site 2 of the VGSC) [%],"[3H]-BTX-B Binding Data, Displacement % (site 2 of the VGSC; Screen at 40 μM, 2 replicates, referenced to Aconitine) [%]",GI50 (PC-3 cells [2]) [µM],"% Nav 1.2 Functional Block (10 μm) (human Nav1.2; 10 μm, Table 13) [%]",IC50 (hNav1.2) [µM]
"CN(C)c1cccc2c(S(=O)(=O)NCCCCCC3(c4cccc(Cl)c4)NC(=O)NC3=O)cccc12 (centres unmarked) [Compound 26, N-(5-(4-(3-chlorophenyl)-2,5-dioxoimidazolidin-4-yl)pentyl)-5-(dimethylamino)naphthalene-1-sulfonamide]",9.95 ± 0.07,9.95 ± 0.07,58.9±4.1,58.9±4.15,58.9 ± 4.1,58.9±4.1,visible due to binding,86.4,86.4,86,36,,
CCCCCCCC1(c2cccc(Cl)c2)NC(=O)NC1=O (centres unmarked) [JDA-3-135],18.97 ± 0.04,18.97 ± 0.04,30.5 ± 5.1,,30.5 ± 5.1,,,69.6,69.6,,18.6 ± 1.5,30.5 ± 5.1,13.9
